Experiment [1] relates to Enterococcus faecalis ATCC 29212 Vancomycin Sensitive. The experiment can be described thus: In-vitro antibacterial activity, broth microdilution MIC. The note with it: ATCC29212, Table 9, E. faecalis, read-out: Antimicrobial activity (in vitro MIC) ATCC 29212. The format is cell-based. As to the method:
(§1) The in-vitro antibacterial activity of the compounds of the present invention (as described in Table 7) was determined by a broth microdilution following the guidelines prescribed by the Clinical and Laboratory Standards Institute (CLSI). This method is described in the CLSI Document M7-A7, Vol. 26, No. 2, “Methods for Dilution Antimicrobial Susceptibility Test for Bacteria that Grow Aerobically; Approved Standard-Seventh Edition”, which is incorporated herein by reference. Minimum Inhibitory Concentration (MIC) is defined as the minimum concentration of test compound which inhibits the growth of bacteria as visible or seen by the naked eye. This test can also be carried out by agar dilution method.
(§2) The compounds of the present invention were tested against a panel of standard microorganisms obtained from ATCC (American type culture collection). Linezolid was used as comparator in all the tests.
(§3) In the broth microdilution method, the compound was dissolved in dimethylsulfoxide and two fold serial dilutions were carried out in 96 well microtitre plates. The inoculum was prepared by adjusting the turbidity of actively growing broth culture and added to the wells to obtain a final bacterial count of ˜2-5×10^4 CFU/well. The microtitre plates were incubated at 35±2° C. for 16-20 h and then read visually.

The subject of experiment [2] is Enterococcus faecium ATCC 700221 VRE (Vancomycin resistant E. faecium). Described as above. The note with it: Table 9, read-out: Antimicrobial activity (in vitro MIC) ATCC 700221. The experiment is classed as cell-based. The procedure: as §1, §2, §3
Experiment [3] has as its system Staphylococcus aureus ATCC 29213 MSSA (Methicillin sensitive). The description is as above. The experiment is classed as cell-based. The note with it: Table 9, S. aureus MSSA, read-out: Antimicrobial activity (in vitro MIC) ATCC 29213. As to the method: as §1, §2, §3
The test system of experiment [4] is Staphylococcus aureus ATCC 33591 MRSA (Methicillin resistant). The experiment is described as above. The format is cell-based. Particulars: Table 9, S. aureus MRSA, read-out: Antimicrobial activity (in vitro MIC) ATCC 33591. The procedure: as §1, §2, §3
The test system of a further experiment is male SWISS albino mice. The experiment can be described thus: Forced Swim Test. The experiment is classed as in vivo. Particulars: mice; for CNS Activity (in vivo FST) % decrease in immobility time (dose 32 mg/kg) / CNS Activity (in vivo FST) % decrease in immobility time: Table 9; for CNS Activity (in vivo FST) % decrease in immobility time: footnote *: dose 64 mg/kg/p.o; for % decrease in immobility time (dose 64 mg/kg) / inhibition in vivo at 32 mg/kg: Table 8, oral; for inhibition in vivo at 32 mg/kg: Mus musculus, 0.25 h, read-out: % decrease in immobility time (dose 32 mg/kg). As to the method: This test was conducted according to the method of Porsolt et al. (Porsolt, R. D., et al., Behavioural despair in mice: A primary screening test for antidepressants. Arch. in Pharmacodyn. Ther., 229, pp 327-336 (1977)).
A test compound was suspended in deionized water, unless otherwise specified, and this suspension was orally administered to male SWISS albino mice (7 to 9 week old). 15 min later, the mice were placed in a water tank having a water depth of 15 cm and a water temperature of 25±1° C. and immediately thereafter allowed to swim for 6 min. Then, a time during which the mouse was immobile (immobility time) was measured for the last 4 min.

Where [5] appears, read: suspended in deionized water, 15 min before test.

In brackets after ≈: the same amount, converted by molar mass. Marks after values point to notes of the source that are not given here. Bounds are passed on as bounds.

By MIC is commonly meant the least concentration at which growth counts as inhibited.

For the compound `CC(=O)N1CC2CC2(c2ccc(N3C[C@H](CO)OC3=O)cc2)C1` (some centres unmarked) [drawing 534], the MIC in experiment [1] was determined as 4 µg/mL (≈ 12.6 µM); in experiment [2], 4 µg/mL (≈ 12.6 µM); in experiment [3] it was 4 µg/mL (≈ 12.6 µM); in experiment [4], 2 µg/mL (≈ 6.32 µM). Also, the “CNS Activity (in vivo FST) % decrease in immobility time (dose 32 mg/kg)” value in the experiment on male SWISS albino mice is 5.1 ± 1.4%.
Consider `CCN1CC2C(COC)C2(c2ccc(N3CCCC3)cc2)C1` (centres unmarked) [drawing 538], for which the MIC in experiment [1], in experiment [2], in experiment [3] and in experiment [4] was more than 32 µg/mL each time. The “CNS Activity (in vivo FST) % decrease in immobility time (dose 32 mg/kg)” value with male SWISS albino mice is on record as 97.2 ± 1.2%.
For the compound `c1cc(C23CNCC2C3)ccc1N1CCOCC1` (centres unmarked) [drawing 537], the MIC in experiment [1], in experiment [2], in experiment [3] and in experiment [4] was more than 32 µg/mL in each case. The “CNS Activity (in vivo FST) % decrease in immobility time” value with male SWISS albino mice is recorded as 84.8* %.
`CCN1CC2CC2(c2ccc(N3CCOC3=O)cc2)C1.Cl` (centres unmarked): the MIC in experiment [1], in experiment [2], in experiment [3] and in experiment [4] was more than 32 µg/mL in each case. In the experiment with male SWISS albino mice, the “CNS Activity (in vivo FST) % decrease in immobility time (dose 32 mg/kg)” value is recorded as 99.2 ± 0.8%.
As to `CCN1CC2CC2(c2ccc(N3CCn4cnnc4C3)cc2)C1` (centres unmarked), the “% decrease in immobility time (dose 64 mg/kg)” value (“% decrease … (dose 64 mg/kg)” for short) in the experiment on male SWISS albino mice (setting [5]) is given as 89.6 ± 10.4%.
For `CCN1CC2CC2(c2ccc(N3CCC(F)CC3)cc2)C1` (centres unmarked), the inhibition in vivo at 32 mg/kg with male SWISS albino mice (setting [5]) came out at 62.8 ± 23.4%.
On the same count and under the same terms, in the case of `CCN1CC2CC2(c2ccc(N3CCCC3)cc2)C1` (centres unmarked) [drawing 519] it was 99.9 ± 0.1%.
As to `c1cc(C23CNCC2C3)ccc1N1CCOCC1` (centres unmarked) [drawing 510], the “% decrease … (dose 64 mg/kg)” value in the experiment with male SWISS albino mice (setting [5]) stood at 37.6 ± 14.5%.
Consider `CCN1C[C@H]2C[C@@]2(c2ccc(N3CCCC3)cc2)C1`, for which the inhibition in vivo at 32 mg/kg with male SWISS albino mice (setting [5]) came out at 97.7 ± 2.3%.
The same measure, in the same setting: in the case of `CCN1C[C@H]2C[C@@]2(c2ccc(N3CCOCC3)cc2)C1` it was 87.7 ± 6%.
As to `COCC1C2CNCC21c1ccc(N2CCOCC2)cc1` (centres unmarked), the “% decrease … (dose 64 mg/kg)” value with male SWISS albino mice (vehicle 0.25% CMC) is on record as 60.8 ± 20.9^z %.
As to `CCN1CC2C(COC)C2(c2ccc(N3CCOCC3)cc2)C1` (centres unmarked), the “% decrease … (dose 64 mg/kg)” value in the experiment with male SWISS albino mice (setting [5]) is reported as 58.4 ± 10.1%.
Regarding `CCN1CC2CC2(c2ccc(N3CCOCC3)cc2)C1` (centres unmarked), the MIC in experiment [1], in experiment [2], in experiment [3] and in experiment [4] was more than 32 µg/mL each time. Besides, the “CNS Activity (in vivo FST) % decrease in immobility time” value in the experiment on male SWISS albino mice is reported as 81.0 ± 7.1* %.
Take `CCN1CC2CC2(c2ccc(N3CCCC3)cc2)C1` (centres unmarked) [drawing 535]: the MIC in experiment [1], in experiment [2], in experiment [3] and in experiment [4] was more than 32 µg/mL throughout. In addition, the “CNS Activity (in vivo FST) % decrease in immobility time (dose 32 mg/kg)” value in the experiment on male SWISS albino mice came out at 99.9 ± 0.1%.
Consider `CCN1C[C@H]2C[C@@]2(c2ccc(N3CC(C)OC(C)C3)cc2)C1` (some centres unmarked), for which, in the experiment with male SWISS albino mice (setting [5]), the “% decrease … (dose 64 mg/kg)” value amounted to 92.4 ± 7.6%.
As for `CCN1CC2CC2(c2ccc(N3CCC(F)C3)cc2)C1` (centres unmarked), the inhibition in vivo at 32 mg/kg in the experiment with male SWISS albino mice (setting [5]) was determined as 77.1 ± 11.2%.
In the case of `CCN1CC2CC2(c2ccc(N3CC(C)OC(C)C3)cc2)C1` (centres unmarked), in the experiment with male SWISS albino mice (setting [5]), the inhibition in vivo at 32 mg/kg worked out at 81.6 ± 10.1%.
In the case of `CC1CN(c2ccc([C@]34CNC[C@H]3C4)cc2)CC(C)O1` (some centres unmarked), the “% decrease … (dose 64 mg/kg)” value in the experiment with male SWISS albino mice (setting [5]) stood at 63.9 ± 4.8%.
As to `CCN1C[C@H]2C[C@@]2(c2ccc(N3CCC(F)C3)cc2)C1` (some centres unmarked), the inhibition in vivo at 32 mg/kg with male SWISS albino mice (setting [5]) was 75.5 ± 12.9%.
Turning to `COCCN1C[C@H]2C[C@@]2(c2ccc(N3CCOCC3)cc2)C1`, the “% decrease … (dose 64 mg/kg)” value in the experiment with male SWISS albino mice (setting [5]) turned out to be 79.2 ± 14.9%.
Regarding `COCCN1CC2CC2(c2ccc(N3CCOCC3)cc2)C1` (centres unmarked), in the experiment on male SWISS albino mice (setting [5]), the “% decrease … (dose 64 mg/kg)” value is on record as 62.4 ± 16.3%.
Still for that read-out and setting: in the case of `CCN1CC2CC2(c2ccc(N3CCN(c4ccccc4)CC3)cc2)C1` (centres unmarked) it was 65.8 ± 9.9%.
For the compound `CCOCC1C2CN(CC)CC12c1ccc(N2CCCC2)cc1` (centres unmarked), the inhibition in vivo at 32 mg/kg in the experiment with male SWISS albino mice (setting [5]) stood at 80.6 ± 13.7%.
